Data taken from the supplement of paper PMC10307832.

Legend:
Test in all cases: relative viability (nuclei count vs DMSO), 5 days (fraction); higher = more cells survive
[1] = compound: O=C(Nc1cc(C(F)(F)F)cc(C(F)(F)F)c1)c1cc(Cl)ccc1O [IMD-0354] + N=C(N)NC(=N)NCCc1ccccc1 [Phenformin] (partner 250 µM)
How it was run: (§1)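 After 5 days of treatment, lung cancer cells in 1536-well plates were fixed and stained in a single step (final 0.05% Triton X-100, 1% formaldehyde, 1 ug/ml Hoechst) and their nuclei counted on 4× images. Treatment had been applied by pin tool the day after seeding as one drug alone or as a fixed anchor-drug dose with five library-drug doses (not always all listed) in √10 steps. Relative viability is the nuclei count of treated wells divided by that of vehicle wells, and values are medians of duplicate plates.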

[2] = compound: O=C(Nc1cc(C(F)(F)F)cc(C(F)(F)F)c1)c1cc(Cl)ccc1O [IMD-0354] + Cc1cc(Nc2cc(N3CCN(C)CC3)nc(Sc3ccc(NC(=O)C4CC4)cc3)n2)n[nH]1 [Tozasertib] (partner 0.1 µM)
How it was run: as §1

[3] = compound: O=C(Nc1cc(C(F)(F)F)cc(C(F)(F)F)c1)c1cc(Cl)ccc1O [IMD-0354] + CC(=O)c1c(C)c2cnc(Nc3ccc(N4CCNCC4)cn3)nc2n(C2CCCC2)c1=O [Palbociclib] (partner 0.5 µM)
How it was run: as §1

[4] = compound: O=C(Nc1cc(C(F)(F)F)cc(C(F)(F)F)c1)c1cc(Cl)ccc1O [IMD-0354] + Cc1nc(NC(=O)N2CCC[C@H]2C(N)=O)sc1-c1ccnc(C(C)(C)C(F)(F)F)c1 [Alpelisib] (partner 2 µM)
How it was run: as §1

NCI-H1666
relative viability ([1]; first compound 0.04 µM): 0.592 | relative viability ([1]; first compound 0.1265 µM): 0.558 | relative viability ([1]; first compound 0.4 µM): 0.476 | relative viability ([1]; first compound 1.265 µM): 0.384 | relative viability ([1]; first compound 4 µM): 0.254 | relative viability ([2]; first compound 0.04 µM): 0.672 | relative viability ([2]; first compound 0.1265 µM): 0.587 | relative viability ([2]; first compound 0.4 µM): 0.488 | relative viability ([2]; first compound 1.265 µM): 0.369 | relative viability ([2]; first compound 4 µM): 0.309 | relative viability ([3]; first compound 0.04 µM): 0.737 | relative viability ([3]; first compound 0.1265 µM): 0.616 | relative viability ([3]; first compound 0.4 µM): 0.601 | relative viability ([3]; first compound 1.265 µM): 0.57 | relative viability ([3]; first compound 4 µM): 0.495 | relative viability ([4]; first compound 0.04 µM): 0.982 | relative viability ([4]; first compound 0.1265 µM): 0.961 | relative viability ([4]; first compound 0.4 µM): 0.966 | relative viability ([4]; first compound 1.265 µM): 0.208 | relative viability ([4]; first compound 4 µM): 0.196

NCI-H1734
relative viability ([1]; first compound 0.04 µM): 0.393 | relative viability ([1]; first compound 0.1265 µM): 0.284 | relative viability ([1]; first compound 0.4 µM): 0.257 | relative viability ([1]; first compound 1.265 µM): 0.165 | relative viability ([1]; first compound 4 µM): 0.129 | relative viability ([2]; first compound 0.04 µM): 0.267 | relative viability ([2]; first compound 0.1265 µM): 0.267 | relative viability ([2]; first compound 0.4 µM): 0.265 | relative viability ([2]; first compound 1.265 µM): 0.231 | relative viability ([2]; first compound 4 µM): 0.117 | relative viability ([3]; first compound 0.04 µM): 0.352 | relative viability ([3]; first compound 0.1265 µM): 0.352 | relative viability ([3]; first compound 0.4 µM): 0.314 | relative viability ([3]; first compound 1.265 µM): 0.232 | relative viability ([3]; first compound 4 µM): 0.196 | relative viability ([4]; first compound 0.04 µM): 0.944 | relative viability ([4]; first compound 0.1265 µM): 0.786 | relative viability ([4]; first compound 0.4 µM): 0.422 | relative viability ([4]; first compound 1.265 µM): 0.452 | relative viability ([4]; first compound 4 µM): 0.254

NCI-H1755
relative viability ([1]; first compound 0.04 µM): 0.603 | relative viability ([1]; first compound 0.1265 µM): 0.547 | relative viability ([1]; first compound 0.4 µM): 0.411 | relative viability ([1]; first compound 1.265 µM): 0.273 | relative viability ([1]; first compound 4 µM): 0.252 | relative viability ([2]; first compound 0.04 µM): 0.566 | relative viability ([2]; first compound 0.1265 µM): 0.627 | relative viability ([2]; first compound 0.4 µM): 0.435 | relative viability ([2]; first compound 1.265 µM): 0.407 | relative viability ([2]; first compound 4 µM): 0.294 | relative viability ([3]; first compound 0.04 µM): 0.448 | relative viability ([3]; first compound 0.1265 µM): 0.456 | relative viability ([3]; first compound 0.4 µM): 0.419 | relative viability ([3]; first compound 1.265 µM): 0.396 | relative viability ([3]; first compound 4 µM): 0.224 | relative viability ([4]; first compound 0.04 µM): 0.964 | relative viability ([4]; first compound 0.1265 µM): 0.562 | relative viability ([4]; first compound 0.4 µM): 0.43 | relative viability ([4]; first compound 1.265 µM): 0.57 | relative viability ([4]; first compound 4 µM): 0.222

NCI-H1793
relative viability ([1]; first compound 0.04 µM): 0.386 | relative viability ([1]; first compound 0.1265 µM): 0.344 | relative viability ([1]; first compound 0.4 µM): 0.157 | relative viability ([1]; first compound 1.265 µM): 0.163 | relative viability ([1]; first compound 4 µM): 0.147 | relative viability ([2]; first compound 0.04 µM): 0.405 | relative viability ([2]; first compound 0.1265 µM): 0.321 | relative viability ([2]; first compound 0.4 µM): 0.233 | relative viability ([2]; first compound 1.265 µM): 0.15 | relative viability ([2]; first compound 4 µM): 0.191 | relative viability ([3]; first compound 0.04 µM): 0.298 | relative viability ([3]; first compound 0.1265 µM): 0.317 | relative viability ([3]; first compound 0.4 µM): 0.211 | relative viability ([3]; first compound 1.265 µM): 0.191 | relative viability ([3]; first compound 4 µM): 0.225 | relative viability ([4]; first compound 0.04 µM): 0.686 | relative viability ([4]; first compound 0.1265 µM): 0.64 | relative viability ([4]; first compound 0.4 µM): 0.34 | relative viability ([4]; first compound 1.265 µM): 0.369 | relative viability ([4]; first compound 4 µM): 0.226

NCI-H1915
relative viability ([1]; first compound 0.04 µM): 0.37 | relative viability ([1]; first compound 0.1265 µM): 0.31 | relative viability ([1]; first compound 0.4 µM): 0.26 | relative viability ([1]; first compound 1.265 µM): 0.182 | relative viability ([1]; first compound 4 µM): 0.156 | relative viability ([2]; first compound 0.04 µM): 0.482 | relative viability ([2]; first compound 0.1265 µM): 0.412 | relative viability ([2]; first compound 0.4 µM): 0.299 | relative viability ([2]; first compound 1.265 µM): 0.268 | relative viability ([2]; first compound 4 µM): 0.175 | relative viability ([3]; first compound 0.04 µM): 0.461 | relative viability ([3]; first compound 0.1265 µM): 0.489 | relative viability ([3]; first compound 0.4 µM): 0.424 | relative viability ([3]; first compound 1.265 µM): 0.234 | relative viability ([3]; first compound 4 µM): 0.143 | relative viability ([4]; first compound 0.04 µM): 0.926 | relative viability ([4]; first compound 0.1265 µM): 1.05 | relative viability ([4]; first compound 0.4 µM): 0.854 | relative viability ([4]; first compound 1.265 µM): 0.612 | relative viability ([4]; first compound 4 µM): 0.214

NCI-H1944
relative viability ([1]; first compound 0.04 µM): 0.232 | relative viability ([1]; first compound 0.1265 µM): 0.197 | relative viability ([1]; first compound 0.4 µM): 0.15 | relative viability ([1]; first compound 1.265 µM): 0.116 | relative viability ([1]; first compound 4 µM): 0.148 | relative viability ([2]; first compound 0.04 µM): 0.252 | relative viability ([2]; first compound 0.1265 µM): 0.245 | relative viability ([2]; first compound 0.4 µM): 0.206 | relative viability ([2]; first compound 1.265 µM): 0.208 | relative viability ([2]; first compound 4 µM): 0.131 | relative viability ([3]; first compound 0.04 µM): 0.289 | relative viability ([3]; first compound 0.1265 µM): 0.324 | relative viability ([3]; first compound 0.4 µM): 0.341 | relative viability ([3]; first compound 1.265 µM): 0.382 | relative viability ([3]; first compound 4 µM): 0.139 | relative viability ([4]; first compound 0.04 µM): 0.694 | relative viability ([4]; first compound 0.1265 µM): 0.854 | relative viability ([4]; first compound 1.265 µM): 0.902 | relative viability ([4]; first compound 4 µM): 0.144

NCI-H1975
relative viability ([1]; first compound 0.04 µM): 0.402 | relative viability ([1]; first compound 0.1265 µM): 0.362 | relative viability ([1]; first compound 0.4 µM): 0.201 | relative viability ([1]; first compound 1.265 µM): 0.139 | relative viability ([1]; first compound 4 µM): 0.124 | relative viability ([2]; first compound 0.04 µM): 0.814 | relative viability ([2]; first compound 0.1265 µM): 0.864 | relative viability ([2]; first compound 0.4 µM): 0.399 | relative viability ([2]; first compound 1.265 µM): 0.111 | relative viability ([2]; first compound 4 µM): 0.148 | relative viability ([3]; first compound 0.04 µM): 0.752 | relative viability ([3]; first compound 0.1265 µM): 0.569 | relative viability ([3]; first compound 0.4 µM): 0.306 | relative viability ([3]; first compound 1.265 µM): 0.165 | relative viability ([3]; first compound 4 µM): 0.178 | relative viability ([4]; first compound 0.04 µM): 0.799 | relative viability ([4]; first compound 0.1265 µM): 0.679 | relative viability ([4]; first compound 0.4 µM): 0.36 | relative viability ([4]; first compound 1.265 µM): 0.167 | relative viability ([4]; first compound 4 µM): 0.204

NCI-H1993
relative viability ([1]; first compound 0.04 µM): 0.48 | relative viability ([1]; first compound 0.1265 µM): 0.495 | relative viability ([1]; first compound 0.4 µM): 0.438 | relative viability ([1]; first compound 1.265 µM): 0.465 | relative viability ([1]; first compound 4 µM): 0.524 | relative viability ([2]; first compound 0.04 µM): 0.626 | relative viability ([2]; first compound 0.1265 µM): 0.623 | relative viability ([2]; first compound 0.4 µM): 0.487 | relative viability ([2]; first compound 1.265 µM): 0.452 | relative viability ([2]; first compound 4 µM): 0.479 | relative viability ([3]; first compound 0.04 µM): 0.657 | relative viability ([3]; first compound 0.1265 µM): 0.384 | relative viability ([3]; first compound 0.4 µM): 0.501 | relative viability ([3]; first compound 1.265 µM): 0.443 | relative viability ([3]; first compound 4 µM): 0.406 | relative viability ([4]; first compound 0.04 µM): 0.762 | relative viability ([4]; first compound 0.1265 µM): 0.695 | relative viability ([4]; first compound 0.4 µM): 0.581 | relative viability ([4]; first compound 1.265 µM): 0.487 | relative viability ([4]; first compound 4 µM): 0.514
